Reference: US20110124740A1, “NOVEL DIARYL HEPATONOID-BASED COMPOUNDS AND USE THEREOF” (priority 2008, published 2011)
Read-outs that look alike come from different tables or passages of the source.

Columns and labels:
[1] = tested on: avian influenza virus KBNP-0028 (KCTC 10866BP); assay type: cell-based, A/chicken/Korea/SNU0028/2000(H9N2)
[2] = tested on: CEF (chicken embryo fibroblasts)

## O=C(CCc1ccc(O)c(O)c1)C[C@H](O)CCc1ccc(O)c(O)c1 [12B-AJ-15A, (5R)-1,7-bis(3,4-dihydroxyphenyl)-5-hydroxyheptane-3-one]
[1]
  Antiviral activity (in words): had antiviral activity
[1]; 12.5 μg/mL
  Number of wells wherein hemagglutination occurs (among 6 wells): 3
[1]; 25 μg/mL
  Number of wells wherein hemagglutination occurs (among 6 wells): 3
[1]; 50 μg/mL
  Number of wells wherein hemagglutination occurs (among 6 wells): 3
[1]; 100 μg/mL
  Number of wells wherein hemagglutination occurs (among 6 wells): 3
[2]
  Cytotoxicity (in words): no cytotoxicity
[2]; 6.25 μg/mL
  Cytotoxicity (MTT assay value): 0.457
[2]; 12.5 μg/mL
  Cytotoxicity (MTT assay value): 0.369
[2]; 25 μg/mL
  Cytotoxicity (MTT assay value): 0.320
[2]; 50 μg/mL
  Cytotoxicity (MTT assay value): 0.369
[2]; 100 μg/mL
  Cytotoxicity (MTT assay value): 0.423
[2]; 200 μg/mL
  Cytotoxicity (MTT assay value): 0.538
